Patent US20200255492A1, “LEPTIN PEPTIDES AND THEIR USE FOR TREATING NEUROLOGICAL DISORDERS” (UNIVERSITY OF DUNDEE, priority 2017, published 2020)

Tested on: mitochondria
Assay: MitoRed analysis of mitochondrial morphology after 6-OHDA (cellular Parkinson's Disease model)
Format: cell-based
Details: 100 μM; 1 hour
Method: Cultures were established on 3 separate occasions in quadruplicate and stained with MitoRED to identify mitochondria after 1 hour of treatment. Statistical significance relative to untreated control is denoted with ** where P<0.01 and *** where P<0.001. Representative images of 100 μM 6-OHDA-treated MitoRED stained cultures (C) and 100 μM 6-OHDA and leptin116-130 co-treated MitoRED stained cultures are shown. Scale bar represents […].
The human neuroblastoma cell line, SH-SY5Y (ECACC, UK) was maintained in Dulbecco's Modified Eagle Medium supplemented with glucose ([…]) and 10% (v/v) cosmic calf serum (Fisher Scientific, UK) at 37° C. in a humidified atmosphere of 5% CO2, 95% air and allowed to reach 70-80% confluence before seeding. Cells (passage 10-18) were plated at 2×10^5 cells on 13 mm borosilicate class coverslips or at 10 000 cells per well in 96 well tissue culture plates (Nunc, VWR, UK) prior to treatment. Reagents used were (from Sigma UK unless stated) 1 nM human leptin, leptin (116-121), leptin (117-122) and leptin (117-125); 0.0001-1 nm murine leptin fragments leptin (116-121), leptin (117-122) and leptin (116-130); 100 μM 6-hydroxydopamine; 10 μM CuCl2; […] Aβ1-42.
Cells were treated with pre-warmed cell culture medium containing 1 μM MitoRed ((9-[2-(4′-Methylcoumarin-7′-oxycarbonyl)phenyl]-3,6-bis(diethylamino)xanthylium chloride) and returned to the incubator for 45 minutes. Following fixation in NBF for 15 minutes, cells were washed 3 times in PBS. Coverslips were mounted in fluorescence mountant onto microscope slides and imaged on the Zeiss Axio MR2 microscope. The mean mitochondrial area and index of fragmentation (number of mitochondria: total area of mitochondrial material) were calculated using Fiji.

Structure (SMILES): NCCc1cc(O)c(O)cc1O [6-OHDA, 6-hydroxydopamine, reference compound]
- cross-sectional area of individual mitochondria, 6-OHDA alone: increase in the cross-sectional area of individual mitochondria
- mitochondrial fragmentation, 6-OHDA alone: decrease in mitochondrial fragmentation
